In patent publication US20260053811A1, “METHODS OF TREATING HYPERTENSION IN OBESE SUBJECTS” (Mineralys Therapeutics, Inc., priority 2022, published 2026):

Tested on: hypertensive subjects
Assay: Seated automated office blood pressure (AOBP) in randomized, placebo-controlled, dose-ranging study
Format: in vivo, human
Conditions: 100 mg QD, FAS; for Seated AOBP DBP change from baseline (CFB), Mean / Seated AOBP DBP, Mean / Seated AOBP SBP change from baseline (CFB), Mean / Seated AOBP SBP, Mean: Part 2
Method: A randomized, double-blinded, placebo-controlled, dose-ranging, multicenter study was conducted to evaluate the effect of orally administered Compound A HBr on blood pressure for the treatment of hypertension in male and female subjects ≥18 years of age.
The study consists of two parts. For enrollment into Part 1 of the study, a subject's value of plasma renin activity (PRA) must be ≤1 ng/mL/h based on morning measurement. If the value of PRA >1 ng/mL/h based on morning measurement, then subjects may be eligible to enter Part 2 of the study.
For Part 1, 163 enrolled subjects ≥18 years of age were randomized into 6 equal treatment groups (1:1:1:1:1:1) to 12.5 mg BID, 25 mg BID, 12.5 mg QD, 50 mg QD, 100 mg QD, or placebo. After a review of interim clinical data, the 2 lowest dose levels (12.5 mg QD and 12.5 mg BID) were stopped for future randomization due to a lack of consistent meaningful reduction of blood pressure, but the patients randomized to that point remained in the study through completion. Thus, after the review of interim clinical data, subjects were randomized into 4 equal treatment groups (1:1:1:1) to 25 mg BID, 50 mg QD, 100 mg QD, or placebo.
For Part 2, 36 enrolled subjects ≥18 years of age were randomized (5:1) to either 100 mg QD Compound A HBr or placebo such that the Compound A HBr treatment group consisted of approximately 30 subjects and the placebo treatment group will consist of approximately 6 subjects.
Subjects orally administered the assigned study drug (Compound A HBr or placebo) according to the assigned dosing regimen for 8 weeks beginning on Study Day 1. All subjects in Part 1 (regardless of dosing group) received BID dosing to preserve the integrity of the blind; active drug is administered as the morning dose for all QD dose groups. Subjects returned to the research facility or were seen by the clinical investigator or approved home health care professional at the end of Study Weeks 1, 2, 3, 4, 5, 6, 7, and 8 (±2 days) for protocol-defined efficacy and safety assessments and procedures, assessment of adverse events (AEs), and confirmation of compliance with study drug usage. Subjects also completed a telephone visit and blood pressure (BP) check at home approximately 3 days post last dose of study drug. Subjects attended up to 14 full clinic visits, including a pre-Screening visit, a Screening/start of Placebo Run-in visit, a second visit during Placebo Run-in, a clinic visit to initiate the ABPM procedure, a Randomization visit, 8 weekly visits during double-blind treatment, and an end-of-study visit scheduled 4 weeks after the last study treatment for final efficacy and safety assessments.
An automated oscillometric sphygmomanometer device was used to measure the subjects' systolic and diastolic blood pressure in office after approximately 5 minutes of rest in the seated position.
The primary endpoint is the change in office-measured (mean of last 2 of 5 unattended measurements using an automated oscillometric sphygmomanometer device after approximately 5 minutes of rest in the seated position) systolic blood pressure (SBP) from baseline to the end of Study Week 8.
Secondary endpoints of this study were: • (a) Change in 24-hour ambulatory blood pressure monitoring (ABPM) parameters (systolic and diastolic) from baseline to the end of Study Week 7. • (b) Change in office-measured SBP from baseline to the end of Study Weeks 1, 2, 3, 4, 5, 6, and 7. • (c) Change in office-measured diastolic blood pressure (DBP) from baseline to the end of Study Weeks 1, 2, 3, 4, 5, 6, 7, and 8. • (d) Proportion of subjects who achieve office-measured BP of ≤130/80 mm Hg by the end of Study Week 8.

**Q.** With `CC(=O)N[C@H]1CC[C@H](NC(=O)CN2CCN(c3nncc(-c4ccc(C)cc4)n3)CC2)CC1` [Compound A HBr] as the compound, how does the “Seated AOBP DBP change from baseline (CFB), Mean (SD)” value (“Seated AOBP DBP change … (SD)” for short) (Week 4, Part 1) read?
**A.** The value was −6.36 (6.75) mmHg.

**Q.** What about the “Seated AOBP DBP, Mean (SD)” value (Week 4, Part 1) of the same compound?
**A.** The value was 71.60 (8.62) mmHg.

**Q.** What about the “Seated AOBP SBP change from baseline (CFB), Mean (SD)” value (“Seated AOBP SBP change … (SD)” below) (Week 4, Part 1) of the same compound?
**A.** The value was −14.60 (11.66) mmHg.

**Q.** And the “Seated AOBP SBP, Mean (SD)” value (Week 4, Part 1)?
**A.** Its value is 129.76 (12.66) mmHg.

**Q.** And the “Seated AOBP DBP change from baseline (CFB), Mean” value (Week 4)?
**A.** The value was −6.92 mmHg.

**Q.** What about the “Seated AOBP DBP, Mean” value (Week 4) of the same compound?
**A.** The value was 71.36 mmHg.

**Q.** What about the “Seated AOBP SBP change from baseline (CFB), Mean” value (Week 4) of the same compound?
**A.** The value was −16.04 mmHg.

**Q.** And the “Seated AOBP SBP, Mean” value (Week 4)?
**A.** Its value is 125.44 mmHg.

**Q.** And the “Seated AOBP DBP change … (SD)” value (Week 5, Part 1)?
**A.** The value was −5.36 (8.12) mmHg.

**Q.** What about the “Seated AOBP DBP, Mean (SD)” value (Week 5, Part 1) of the same compound?
**A.** Its value is 72.60 (11.27) mmHg.

**Q.** And the “Seated AOBP SBP change … (SD)” value (Week 5, Part 1)?
**A.** Its value is −13.40 (16.59) mmHg.

**Q.** What about the “Seated AOBP SBP, Mean (SD)” value (Week 5, Part 1) of the same compound?
**A.** Its value is 130.96 (14.84) mmHg.

**Q.** And the “Seated AOBP DBP change from baseline (CFB), Mean” value (Week 5)?
**A.** Its value is −6.35 mmHg.

**Q.** And the “Seated AOBP DBP, Mean” value (Week 5)?
**A.** Its value is 71.31 mmHg.

**Q.** And the “Seated AOBP SBP change from baseline (CFB), Mean” value (Week 5)?
**A.** The value was −12.87 mmHg.

**Q.** What about the “Seated AOBP SBP, Mean” value (Week 5) of the same compound?
**A.** Its value is 127.92 mmHg.

**Q.** What about the “Seated AOBP DBP change … (SD)” value (Week 6, Part 1) of the same compound?
**A.** The value was −3.33 (7.96) mmHg.

**Q.** What about the “Seated AOBP DBP, Mean (SD)” value (Week 6, Part 1) of the same compound?
**A.** The value was 74.77 (10.12) mmHg.

**Q.** And the “Seated AOBP SBP change … (SD)” value (Week 6, Part 1)?
**A.** The value was −6.62 (15.69) mmHg.

**Q.** What about the “Seated AOBP SBP, Mean (SD)” value (Week 6, Part 1) of the same compound?
**A.** The value was 138.73 (14.13) mmHg.

**Q.** What about the “Seated AOBP DBP change from baseline (CFB), Mean” value (Week 6) of the same compound?
**A.** Its value is −7.25 mmHg.

**Q.** And the “Seated AOBP DBP, Mean” value (Week 6)?
**A.** The value was 70.65 mmHg.

**Q.** And the “Seated AOBP SBP change from baseline (CFB), Mean” value (Week 6)?
**A.** The value was −13.29 mmHg.

**Q.** And the “Seated AOBP SBP, Mean” value (Week 6)?
**A.** Its value is 127.58 mmHg.

**Q.** What about the “Seated AOBP DBP change … (SD)” value (Week 7, Part 1) of the same compound?
**A.** The value was −4.12 (8.55) mmHg.

**Q.** And the “Seated AOBP DBP, Mean (SD)” value (Week 7, Part 1)?
**A.** Its value is 73.48 (11.08) mmHg.

**Q.** What about the “Seated AOBP SBP change … (SD)” value (Week 7, Part 1) of the same compound?
**A.** Its value is −11.04 (16.75) mmHg.

**Q.** And the “Seated AOBP SBP, Mean (SD)” value (Week 7, Part 1)?
**A.** The value was 134.32 (18.32) mmHg.

**Q.** What about the “Seated AOBP DBP change from baseline (CFB), Mean” value (Week 7) of the same compound?
**A.** Its value is −6.13 mmHg.

**Q.** What about the “Seated AOBP DBP, Mean” value (Week 7) of the same compound?
**A.** The value was 71.61 mmHg.

**Q.** And the “Seated AOBP SBP change from baseline (CFB), Mean” value (Week 7)?
**A.** The value was −11.66 mmHg.

**Q.** What about the “Seated AOBP SBP, Mean” value (Week 7) of the same compound?
**A.** The value was 128.75 mmHg.

**Q.** What about the “LSM Δ from Placebo, change from baseline in seated AOBP SBP (MMRM)” value (Week 8, Part 1) of the same compound?
**A.** Its value is −7.81 mmHg.

**Q.** What about the “LSM Δ with Placebo, seated AOBP DBP (MMRM)” value (Week 8, Part 1) of the same compound?
**A.** The value was −4.11 mmHg.

**Q.** And the “Modelled (MMRM) LSM (SEM) change from baseline, seated AOBP DBP” value (Week 8, Part 1)?
**A.** Its value is −5.75 (1.77) mmHg.

**Q.** What about the “Modelled (MMRM) LSM (SEM) change from baseline, seated AOBP SBP” value (Week 8, Part 1) of the same compound?
**A.** Its value is −11.92 (2.77) mmHg.

**Q.** What about the “Seated AOBP DBP change … (SD)” value (Week 8, Part 1) of the same compound?
**A.** The value was −5.46 (7.85) mmHg.

**Q.** What about the “Seated AOBP DBP, Mean (SD)” value (Week 8, Part 1) of the same compound?
**A.** Its value is 73.00 (9.43) mmHg.

**Q.** What about the “Seated AOBP SBP change … (SD)” value (Week 8, Part 1) of the same compound?
**A.** Its value is −14.08 (13.26) mmHg.

**Q.** And the “Seated AOBP SBP, Mean (SD)” value (Week 8, Part 1)?
**A.** The value was 131.28 (14.13) mmHg.

**Q.** And the “Subjects with seated AOBP SBP/DBP ≤130/80 mmHg: No” value (Week 8, Part 1)?
**A.** Its value is 21 (70.0) n (%).

**Q.** What about the “Subjects with seated AOBP SBP/DBP ≤130/80 mmHg: Yes” value (Week 8, Part 1) of the same compound?
**A.** The value was 9 (30.0) n (%).

**Q.** What about the “Seated AOBP DBP change from baseline (CFB), Mean” value (Week 8) of the same compound?
**A.** The value was −5.68 mmHg.

**Q.** And the “Seated AOBP DBP, Mean” value (Week 8)?
**A.** Its value is 72.17 mmHg.

**Q.** And the “Seated AOBP SBP change from baseline (CFB), Mean” value (Week 8)?
**A.** The value was −11.20 mmHg.

**Q.** And the “Seated AOBP SBP, Mean” value (Week 8)?
**A.** The value was 129.30 mmHg.
